According to patent US10968169B2, “Urea derivative” (Daiichi Sankyo Company, Limited, priority 2016, dated 2021):
Where two headings read alike, the source gives them in different places.

Legend:
[1] = system: Bacteroides; test: Indole production suppressing effect in viable bacteria; assay type: cell-based; details: indole concentration in culture supernatant, read-out: Eroides Activity of Inhibiting Indole Production(IC50)
Description: The effect of a tryptophanase inhibitory compound to suppress indole production from a viable bacterium can be evaluated through the following operation. When E. coli (Escherichia Coli) is used as a strain known to produce indole, the strain is cultured in an LB medium at 37° C. for 12 to 18 hours under anaerobic conditions, and then, suspended in an assay medium (5 mM L-Tryptophan/PBS(+)/25 mM HEPES (pH8)) in such a manner as to obtain O.D. of about 0.3. When bacteroides is used, the strain is cultured in a modified GAM medium at 37° C. for 12 to 18 hours under anaerobic conditions, and then suspended in an assay medium (5 mM L-Tryptophan/PBS(+)/25 mM HEPES (pH8)) in such a manner as to obtain O.D. of about 1.1. The thus obtained viable bacterial suspension prepared to have a final concentration of a compound of 1 μM to 10 mM is dispensed at 200 μL per well into a 96-well plate and cultured at 37° C. for 2 to 4 hours under anaerobic conditions, and O.D., an ATP concentration (that can be quantitatively determined by using BacTiter-Glo (Promega Corporation)) and an indole concentration in the culture supernatant (that can be quantitatively determined by utilizing Ehrlich reaction) are measured. The effect of the tryptophanase inhibitory compound to suppress indole production from a viable bacterium can be evaluated depending on the degree of lowering of the indole concentration in the culture supernatant. It can be checked whether or not the effect is derived from a function other than tryptophanase inhibition, such as a bactericidal function or a bacterial growth inhibitory function, depending on lowering of the O.D. or reduction in the ATP concentration or by performing a generally practiced antibacterial activity test (a MIC (minimum growth inhibition concentration) test) using levofloxacin or the like as a positive control. The activities of inhibiting indole production of the compounds of the respective examples shown in Table 11 were measured by the above-described method using Bacteroides to evaluate the effect of inhibiting indole production.

[2] = system: indoxyl sulfate concentration in the plasma; test: Effect of reducing indoxyl sulfate concentration in the plasma of mice; assay type: in vivo, male BALB/c mouse; details: oral
Description: An effect of a tryptophanase inhibitory compound to reduce an indoxyl sulfate concentration in the plasma of a mouse can be evaluated through the following operation.
After fasting a male BALB/c mouse overnight, a tryptophanase compound dissolved or suspended at a concentration of 0.01 to 10 mg/mL in a 0.5% methylcellulose (MC) solution used as a solvent and a 0.5% MC solution are orally administered by gavage at a dose of 10 mL/kg respectively to a test compound group and to a solvent control group. When 30 minutes have elapsed after the administration of the test compound or the solvent, L-tryptophan, that is, a substrate of tryptophanase, is orally administered by gavage at a dose of 1 to 3 g/kg. The L-tryptophan is suspended in a 0.5% tragacanth solution. For 12 hours after the administration of the L-tryptophan, blood is collected over time from a tail vein by using a hematocrit tube. The thus obtained blood is centrifuged at 11,000 rpm for 5 minutes to collect plasma, and the indoxyl sulfate concentration in the plasma is measured singly by liquid chromatography (fluorescence detection) or its combination with a mass spectrometer used subsequently. The indoxyl sulfate concentration in the plasma of the test compound group against the indoxyl sulfate concentration in the plasma of the solvent control group is calculated as, for example, a ratio of the area under a curve of the indoxyl sulfate concentration, and thus, the efficacy of each compound in a living body can be compared.
The indoxyl sulfate concentrations in plasma obtained by using the compounds of the respective examples shown in Table 12 below were measured by the above-described method to evaluate the effect of reducing indoxyl sulfate concentration.

[3] = target: tryptophanase of Bacteroides thetaiotamicron (Bacteroides thetaiotaomicron, UniProt Q8A7N2); test: Tryptophanase enzyme inhibitory activity (LDH-coupled NADH loss); assay type: biochemical; details: L-tryptophan 10 mM, 37° C., absorbance at 340 nm; read-out: Bacteroides Activity of Inhibiting Tryptophanase (IC50)
Description: Tryptophanase inhibitory activity was evaluated by a method using lactate dehydrogenase (LDH). The reaction time-dependent reduction in NADH conjugated with the enzymatic reaction, with LDH, of pyruvic acid produced through the enzymatic reaction of L-tryptophan as a substrate with tryptophanase, was measured with a spectrophotometer (Phillips-R S et al., Biochemistry, 23, 6228-6234 (1984)). Enzyme inhibitory activity obtained without adding a test compound (by adding DMSO alone) in the presence of tryptophanase was used as a control. As the enzyme, tryptophanase of Bacteroides thetaiotamicron (Genbank accession number: HC914434.1) was used. A test compound solution was prepared by dissolving each test compound in DMSO in an arbitrary concentration (from 30 mM to 30 nM at 10-fold common ratio). LDH, NADH and L-tryptophan were prepared, using distilled water, respectively to concentrations of 80 units/mL, 10 mM and […]. Bacteroides tryptophanase was prepared to 30 mg/mL. A potassium phosphate buffer was used as the buffer. [table] A reaction solution A was dispensed at 284.8 μL per well into a 96-well plate, and the test compound solution was added at 3.2 μL per well to obtain a final concentration of 1/100 (reaction solution B). The reaction solution B was incubated at 37° C. for 30 minutes, L-tryptophan was added thereto at 32 μL per well to obtain a final concentration of 10 mM (reaction solution C), and the enzyme reaction was performed at 37° C. over 30 minutes with absorbance at 340 nm measured for monitoring the NADH loss. Based on the NADH loss, the tryptophanase inhibitory activity of the compound was evaluated. Besides, the following compounds were similarly tested instead of the test compound.

Sequence of tryptophanase of Bacteroides thetaiotamicron (Q8A7N2 entry or part of it, change not shown): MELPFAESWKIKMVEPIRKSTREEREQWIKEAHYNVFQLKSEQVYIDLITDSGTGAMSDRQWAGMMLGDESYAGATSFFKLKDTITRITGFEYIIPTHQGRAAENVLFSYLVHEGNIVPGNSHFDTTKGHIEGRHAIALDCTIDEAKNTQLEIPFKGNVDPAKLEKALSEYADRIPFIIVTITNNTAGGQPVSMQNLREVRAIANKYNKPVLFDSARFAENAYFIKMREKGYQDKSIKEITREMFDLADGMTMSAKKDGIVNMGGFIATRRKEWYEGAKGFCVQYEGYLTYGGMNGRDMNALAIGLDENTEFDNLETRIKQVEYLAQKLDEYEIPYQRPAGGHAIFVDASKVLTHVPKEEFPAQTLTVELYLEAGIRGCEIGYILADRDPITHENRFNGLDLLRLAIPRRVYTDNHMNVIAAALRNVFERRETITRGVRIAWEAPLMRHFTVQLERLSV

IC50 [3] | SMILES | IC50 ([1]; Bacteroides) | Indoxyl Sulfate Reduction Effect in Male BALB/c Mouse Plasma (Indoxyl sulfate reduction effect in plasma 6 hours after administering L-tryptophan: ED75−, mg/kg) [2] | IC50 [1]
38.1 µM | CCC(CC)(NC(=O)Nc1ccc(F)cc1)C(=O)O [Compound D, 2-ethyl-2-{[(4-fluorophenyl)carbamoyl]amino}butanoic acid] | 11 µM | 1 mg/kg | –
0.6 µM | CCC(NC(=O)Nc1cccc(C#N)c1)(C(=O)O)C1CC1 (single isomer, unassigned) [(+) Isomer Compound of Example 33, (+)-2-{[(3-Cyanophenyl)carbamoyl]amino}-2-cyclopropylbutanoic acid] | – | 1 mg/kg | < 3 µM
12.8 µM | CC[C@@](C)(NC(=O)Nc1ccc(OC(F)F)cc1)C(=O)O [Example 8, (−)-N-{[4-(Difluoromethoxy)phenyl]carbamoyl}-D-isovaline] | 7 µM | 1 mg/kg | –
4.7 µM | CCC(CC)(NC(=O)Nc1ccc(CC#N)cc1)C(=O)O [Compound G, 2-({[4-(cyanomethyl)phenyl]carbamoyl}amino)-2-ethylbutanoic acid] | 8 µM | 1 mg/kg | –
34.1 µM | CCC(CC)(NC(=O)Nc1ccsc1)C(=O)O [Compound H, 2-ethyl-2-[(thiophen-3-ylcarbamoyl)amino]butanoic acid] | 11 µM | 1 mg/kg | –
22.1 µM | CC[C@@](C)(NC(=O)Nc1ccc(Br)cc1)C(=O)O [Example 30, (−)-N-[(4-Bromophenyl)carbamoyl]-D-isovaline] | 14 µM | 1 mg/kg | –
16 µM | CCC(CC)(NC(=O)Nc1ccc(Cl)cc1)C(=O)O [Compound C, 2-{[(4-chlorophenyl)carbamoyl]amino}-2-ethylbutanoic acid] | 6 µM | >1 mg/kg | –
7.7 µM | CC[C@@](NC(=O)Nc1cccc(C#N)c1)(C(=O)O)C1CC1 [(−) Isomer Compound of Example 33, (−)-2-{[(3-cyanophenyl)carbamoyl]amino}-2-cyclopropylbutanoic acid] | – | >1 mg/kg | 9 µM
7.4 µM | CCC(CC)(NC(=O)Nc1cccc(Cl)c1)C(=O)O [Compound B, 2-{[(3-chlorophenyl)carbamoyl]amino}-2-ethylbutanoic acid] | < 3 µM | >1 mg/kg | –
16.5 µM | CCC(CC)(NC(=O)Nc1cccc(C#N)c1)C(=O)O [Compound F, 2-{[(3-cyanophenyl)carbamoyl]amino}-2-ethylbutanoic acid] | 12 µM | 1 mg/kg | –
18.9 µM | CCC(CC)(NC(=O)Nc1cccc(F)c1)C(=O)O [Compound E, 2-ethyl-2-{[(3-fluorophenyl)carbamoyl]amino}butanoic acid] | 7 µM | >1 mg/kg | –
13.5 µM | CC[C@@](C)(NC(=O)Nc1ccc(OC(F)F)c(F)c1)C(=O)O [Example 15, (−)-N-{[4-(Difluoromethoxy)-3-fluorophenyl]carbamoyl}-D-isovaline] | 14 µM | 1 mg/kg | –
26.8 µM | CC[C@@](C)(NC(=O)Nc1ccc(Cl)cc1)C(=O)O [Example 25, (−)-N-[(4-Chlorophenyl)carbamoyl]-D-isovaline] | 23 µM | 1 mg/kg | –
